This is an account of results in US6083981A, “Sulfonamide substituted aspartic acid interleukin-1β converting enzyme inhibitors” (Warner-Lambert Company, priority 1999, dated 2000).

The test system of series [1] is human peripheral blood mononuclear cells (PBMCs). The series can be described thus: PBMC viability (MTT), compound toxicity. The class given is cell-based. An excerpt: (§1) Further evidence that compounds of Formula I, II, and III are inhibitors of ICE is provided by their ability to inhibit IL-1β production in human peripheral blood mononuclear cells (PBMCs) as described herein. PBMCs are isolated from heparinized blood by centrifugation over a ficoll cushion, then washed three times with phosphate-buffered saline. PBMCs are suspended in a medium containing RPMI 1640 with glutamine, penicillin, streptomycin, and 2% human AB serum, then plated at 10^6 cells per well in 96 well flat bottom plates. PBMCs are stimulated overnight with 10 ng/mL of lipopolysaccharide (LPS, E. Coli strain 0111:B4; Calbiochem) in the presence or absence of a compound of Formula I. Medium is harvested and the level of mature IL-1β was determined using an ELISA kit from R & D Systems. Compound inhibition is assessed by determining the concentration of agent which reduces IL-1β levels by 50%. Cells were cultured for an additional four hours in the presence of 3-(4,5-dimethylthiazol-2-yl)-2,5-diphenyltetrazolium bromide (MTT) to determine viability. Compound toxicity can, therefore, be assessed by determining the concentration of agent which kills 50% of the cells (IC50).

Series [2] has as its system IL-1β production in human peripheral blood mononuclear cells (PBMCs). The series can be described thus: PBMC Cellular Assay, inhibition of LPS-stimulated IL-1β production. It counts as cell-based. The settings on record: mature IL-1β by ELISA, 10 ng/mL LPS overnight, 2% human AB serum.
Source text: as §1
A general note: In an ELISA, binding on a coated surface is turned into a signal by an enzyme label.

Series [3] deals with T1, ICE (Homo sapiens, UniProt P29466).
T1 sequence (P29466 120-297 limits assumed): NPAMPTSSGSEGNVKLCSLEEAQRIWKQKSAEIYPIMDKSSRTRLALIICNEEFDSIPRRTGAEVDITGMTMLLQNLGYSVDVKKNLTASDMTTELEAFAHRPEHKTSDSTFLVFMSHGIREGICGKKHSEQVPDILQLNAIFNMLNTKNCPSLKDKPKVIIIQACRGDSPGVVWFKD
T1 sequence (P29466 317-404 limits assumed): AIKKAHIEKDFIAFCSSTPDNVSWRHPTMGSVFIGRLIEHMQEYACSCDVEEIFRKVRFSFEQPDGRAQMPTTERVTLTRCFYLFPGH
Briefly: ICE Colorimetric Dose-Response (IC50) Assay. It counts as biochemical. The settings on record: 24 nM ICE, 60 min preincubation, 50 μM Ac-Tyr-Val-Ala-Asp-pNA, pH 7.5, 25° C. Here is the method: Aliquots of each dilution are transferred to a microtitre plate in triplicate.
(§2) ICE enzyme is diluted to approximately 24 nM in HGE buffer (100 mM Hepes pH 7.5, 0.5 mM EDTA, 20% glycerol, 0.1% Bovine Serum Albumin (BSA), and activated by adding dithiothreitol (DTT) to a final concentration of 5 mM. The activated enzyme is then aliquoted into wells containing inhibitor or vehicle, and the plate is preincubated for 60 minutes at ambient temperature. Substrate (Ac--Tyr--Val--Ala--Asp--pNA) is added to each well to a final concentration of 50 μM, and plates are placed in the microtitre plate-reader thermostated to 25° C. Beginning 5 minutes after addition of substrate, absorbance (405 nm) of wells is monitored for 1 hour, and activity is calculated as the mean rate of change in absorbance during this interval.

The target of series [4] is T1, ICE. The series can be described thus: ICE inhibition, fluorometric Ki (Ac-Tyr-Val-Ala-Asp-AMC substrate). The class given is biochemical. The settings on record: 0.24 nM ICE, 15 μM Ac-Tyr-Val-Ala-Asp-AMC, reversible competitive model. Here is the method:
Substrate hydrolysis is monitored for 300 seconds by observing the fluorescence of released AMC using excitation at 380 nm and emission at 460 nm. Mean rates of substrate hydrolysis are evaluated by linear-regression analysis of the fluorescence vs time traces.

Series [5] concerns the target T2, Ich-2 (Caspase-4) (Homo sapiens, UniProt P49662).
T2 sequence (P49662 81-270 limits assumed): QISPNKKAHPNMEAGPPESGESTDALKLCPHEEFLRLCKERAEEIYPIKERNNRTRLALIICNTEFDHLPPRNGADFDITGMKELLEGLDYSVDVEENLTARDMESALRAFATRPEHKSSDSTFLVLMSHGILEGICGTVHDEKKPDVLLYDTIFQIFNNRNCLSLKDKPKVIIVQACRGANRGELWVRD
T2 sequence (P49662 290-377 limits assumed): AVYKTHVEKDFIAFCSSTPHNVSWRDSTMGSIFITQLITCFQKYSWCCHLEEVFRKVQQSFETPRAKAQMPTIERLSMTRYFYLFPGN
Briefly: Ich-2 (Caspase-4) Colorimetric Dose-Response (IC50) Assay. The class given is biochemical. Particulars: 64 nM enzyme, 60 μM Ac-Leu-Glu-Val-Asp-pNA. The method, then:
as §2
Inhibition of Ich-2 enzyme is assayed as described above for ICE, except that enzyme is used at 64 nM, and 60 μM of the Ich-2-specific substrate Ac--Leu--Glu--Val--Asp--pNA is used instead of the ICE substrate Ac--Tyr--Val--Ala--Asp--pNA.

Series [6] can be described thus: PBMC viability (MTT), compound toxicity. It counts as cell-based. The settings on record: human, MTT viability, additional four hours, concentration which kills 50% of the cells, read-out: PBMC TC50.
Source text: as §1

On to “3-(2-Sec-Butoxy-Benzenesulfonylamino)-4-Oxo-Butyric Acid [Example 27]”, for which the CC50 in series [1] was > 100 µM. In addition, the concentration for half-maximal inhibition (IC50) (as a rule, the concentration needed to halve the response being measured) in series [2] is > 100 µM; in series [3], 35 µM; in series [5], 118 µM. In series [4], the Ki – broadly, the equilibrium dissociation constant of an inhibitor or competing ligand from its target – came out at 3.9 µM.
On to `Cc1cccc(S(=O)(=O)NC(C=O)CC(=O)O)c1Oc1ccc(C(C)C)cc1` (stereo not shown) [Example 41, 3-[2-(4-Isopropylphenoxy)-3-Methylbenzenesulfonylamino]-4-Oxo-Butyric Acid], for which the CC50 in series [6] was > 100 µM. For the same compound, the IC50 in series [2] (PBMC) is 45 µM; in series [3], 12 µM; in series [5], 9.2 µM. In series [4], this compound yielded a Ki of 1.5 µM.
For the compound `Cc1ccccc1Oc1c(C)cccc1S(=O)(=O)NC(C=O)CC(=O)O` (stereo not shown) [Example 42, 3-[2-(2-Methylphenoxy)-3-Methylbenzenesulfonylamino]-4-Oxo-Butyric Acid], in series [6], the CC50 was > 100 µM. Besides, the concentration for half-maximal inhibition (IC50) in series [2] (PBMC) turned out to be 38 µM; in series [3] it was 1.1 µM; in series [5], 57 µM. In addition, the Ki in series [4] came to 0.3 µM.
For `Cc1ccc(Oc2ccccc2)c(S(=O)(=O)NC(C=O)CC(=O)O)c1` (stereo not shown) [Example 44, 3-(5-Methyl-2-Phenoxy-Benzenesulfonylamino)-4-Oxo-Butyric Acid] the same measures were > 100 µM, > 100 µM, 41 µM, 199 µM and 2.2 µM.
For the compound `Cc1ccc(S(=O)(=O)NC(C=O)CC(=O)O)c(Oc2ccccc2)c1` (stereo not shown) [Example 45, 3-(4-Methyl-2-Phenoxy-Benzenesulfonylamino)-4-Oxo-Butyric Acid], in series [6], the CC50 was > 100 µM. For the same compound, the figures for the IC50 in series [2] (PBMC), in series [3] and in series [5] were 70 µM, 1.7 µM and 14 µM, respectively. Besides, in series [4], the affinity corresponds to a Ki of 18 µM.
